# According to PubChem BioAssay (NCI):
#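 A five-concentration, 48-hour dose response in 96-well plates underlies each endpoint, interpolated linearly between surrounding concentrations. GI50 = concentration required for 50% inhibition of growth. Definition used: TGI = concentration required for complete inhibition of growth.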
# Tests used:
# Assay in all cases: NCI anticancer screen, dose series, 48 h
# A498 renal = test system: A498 renal
# M14 melanoma = test system: M14 melanoma
# A549 NSCLC = test system: A549 NSCLC
# HT29 colon = test system: HT29 colon
# HCC-2998 colon = test system: HCC-2998 colon
# DU-145 prostate = test system: DU-145 prostate
# NCI-H522 lung = test system: NCI-H522 lung
# PC-3 prostate = test system: PC-3 prostate
# RPMI-8226 leukemia = test system: RPMI-8226 leukemia
# OVCAR-8 ovarian = test system: OVCAR-8 ovarian
# SN12C renal = test system: SN12C renal
# SNB-19 CNS = test system: SNB-19 CNS
# MOLT-4 leukemia = test system: MOLT-4 leukemia
# HOP-62 NSCLC = test system: HOP-62 NSCLC
# SNB-75 CNS = test system: SNB-75 CNS
# SK-MEL-5 melanoma = test system: SK-MEL-5 melanoma
# SF-295 CNS = test system: SF-295 CNS
# NCI/ADR-RES ovarian = test system: NCI/ADR-RES ovarian
# KM12 colon = test system: KM12 colon
# NCI-H23 lung = test system: NCI-H23 lung
# NCI-H460 lung = test system: NCI-H460 lung
# TK-10 renal = test system: TK-10 renal
# UO-31 renal = test system: UO-31 renal
# MCF7 breast = test system: MCF7 breast
# MALME-3M melanoma = test system: MALME-3M melanoma
# HCT-15 colon = test system: HCT-15 colon
# OVCAR-4 ovarian = test system: OVCAR-4 ovarian
# SK-OV-3 ovarian = test system: SK-OV-3 ovarian
# SK-MEL-2 melanoma = test system: SK-MEL-2 melanoma
# 786-0 renal = test system: 786-0 renal
# SF-539 CNS = test system: SF-539 CNS
# T-47D breast = test system: T-47D breast
# SF-268 CNS = test system: SF-268 CNS
# MDA-MB-435 = test system: MDA-MB-435
# EKVX NSCLC = test system: EKVX NSCLC
# SR leukemia = test system: SR leukemia
# U251 CNS = test system: U251 CNS
# HCT-116 colon = test system: HCT-116 colon
# CAKI-1 renal = test system: CAKI-1 renal
# OVCAR-3 ovarian = test system: OVCAR-3 ovarian
# BT-549 breast = test system: BT-549 breast
# SW-620 colon = test system: SW-620 colon
# NCI-H226 lung = test system: NCI-H226 lung
# ACHN renal = test system: ACHN renal
# RXF 393 renal = test system: RXF 393 renal
# CCRF-CEM leukemia = test system: CCRF-CEM leukemia
# OVCAR-5 ovarian = test system: OVCAR-5 ovarian
# UACC-257 melanoma = test system: UACC-257 melanoma
# LOX IMVI melanoma = test system: LOX IMVI melanoma
# SK-MEL-28 melanoma = test system: SK-MEL-28 melanoma
# COLO 205 colon = test system: COLO 205 colon
# UACC-62 melanoma = test system: UACC-62 melanoma
# HOP-92 NSCLC = test system: HOP-92 NSCLC
# MDA-MB-231 breast = test system: MDA-MB-231 breast
# HS 578T breast = test system: HS 578T breast
# HL-60(TB) leukemia = test system: HL-60(TB) leukemia
# IGROV1 ovarian = test system: IGROV1 ovarian
structure (smiles),measurement,setting,value
CCC(=C/[C@H](C)C/C=C/C(C)=C/[C@@H](C)C(=O)[C@@H](C)[C@H](O)[C@@H](C)CC)/C=C/[C@@H]1OC(=O)C=C[C@@H]1C,GI50,A498 renal,< 5 nM
same,TGI,A498 renal,< 5 nM
same,GI50,M14 melanoma,< 5 nM
same,TGI,M14 melanoma,< 5 nM
same,GI50,A549 NSCLC,< 5 nM
same,TGI,A549 NSCLC,7020 nM
same,GI50,HT29 colon,< 5 nM
same,TGI,HT29 colon,5310 nM
same,GI50,HCC-2998 colon,< 5 nM
same,TGI,HCC-2998 colon,< 5 nM
same,GI50,DU-145 prostate,< 5 nM
same,TGI,DU-145 prostate,5710 nM
same,GI50,NCI-H522 lung,< 5 nM
same,TGI,NCI-H522 lung,81.7 nM
same,GI50,PC-3 prostate,< 5 nM
same,TGI,PC-3 prostate,5940 nM
same,GI50,RPMI-8226 leukemia,< 5 nM
same,TGI,RPMI-8226 leukemia,< 5 nM
same,GI50,OVCAR-8 ovarian,< 5 nM
same,TGI,OVCAR-8 ovarian,6160 nM
same,GI50,SN12C renal,< 5 nM
same,TGI,SN12C renal,4320 nM
same,GI50,SNB-19 CNS,< 5 nM
same,TGI,SNB-19 CNS,3500 nM
same,GI50,MOLT-4 leukemia,< 5 nM
same,TGI,MOLT-4 leukemia,< 5 nM
same,GI50,HOP-62 NSCLC,< 5 nM
same,TGI,HOP-62 NSCLC,874 nM
same,GI50,SNB-75 CNS,< 5 nM
same,TGI,SNB-75 CNS,77.3 nM
same,GI50,SK-MEL-5 melanoma,< 5 nM
same,TGI,SK-MEL-5 melanoma,< 5 nM
same,GI50,SF-295 CNS,< 5 nM
same,TGI,SF-295 CNS,7490 nM
same,GI50,NCI/ADR-RES ovarian,< 5 nM
same,TGI,NCI/ADR-RES ovarian,1370 nM
same,GI50,KM12 colon,< 5 nM
same,TGI,KM12 colon,5170 nM
same,GI50,NCI-H23 lung,< 5 nM
same,TGI,NCI-H23 lung,4290 nM
same,GI50,NCI-H460 lung,< 5 nM
same,TGI,NCI-H460 lung,53.3 nM
same,GI50,TK-10 renal,< 5 nM
same,TGI,TK-10 renal,10700 nM
same,GI50,UO-31 renal,< 5 nM
same,TGI,UO-31 renal,214 nM
same,GI50,MCF7 breast,< 5 nM
same,TGI,MCF7 breast,158 nM
same,GI50,MALME-3M melanoma,< 5 nM
same,TGI,MALME-3M melanoma,253 nM
same,GI50,HCT-15 colon,< 5 nM
same,TGI,HCT-15 colon,409 nM
same,GI50,OVCAR-4 ovarian,< 5 nM
same,TGI,OVCAR-4 ovarian,6660 nM
same,GI50,SK-OV-3 ovarian,< 5 nM
same,TGI,SK-OV-3 ovarian,6500 nM
same,GI50,SK-MEL-2 melanoma,< 5 nM
same,TGI,SK-MEL-2 melanoma,3030 nM
same,GI50,786-0 renal,< 5 nM
same,TGI,786-0 renal,< 5 nM
same,GI50,SF-539 CNS,< 5 nM
same,TGI,SF-539 CNS,< 5 nM
same,GI50,T-47D breast,< 5 nM
same,TGI,T-47D breast,6180 nM
same,GI50,SF-268 CNS,< 5 nM
same,TGI,SF-268 CNS,2190 nM
same,GI50,MDA-MB-435,< 5 nM
same,TGI,MDA-MB-435,< 5 nM
same,GI50,EKVX NSCLC,< 5 nM
same,TGI,EKVX NSCLC,8330 nM
same,GI50,SR leukemia,< 5 nM
same,TGI,SR leukemia,219 nM
same,GI50,U251 CNS,< 5 nM
same,TGI,U251 CNS,2060 nM
same,GI50,HCT-116 colon,< 5 nM
same,TGI,HCT-116 colon,< 5 nM
same,GI50,CAKI-1 renal,< 5 nM
same,TGI,CAKI-1 renal,8530 nM
same,GI50,OVCAR-3 ovarian,< 5 nM
same,TGI,OVCAR-3 ovarian,6300 nM
same,GI50,BT-549 breast,< 5 nM
same,TGI,BT-549 breast,< 5 nM
same,GI50,SW-620 colon,< 5 nM
same,TGI,SW-620 colon,3180 nM
same,GI50,NCI-H226 lung,< 5 nM
same,TGI,NCI-H226 lung,< 5 nM
same,GI50,ACHN renal,< 5 nM
same,TGI,ACHN renal,6290 nM
same,GI50,RXF 393 renal,< 5 nM
same,TGI,RXF 393 renal,71.1 nM
same,GI50,CCRF-CEM leukemia,< 5 nM
same,TGI,CCRF-CEM leukemia,1800 nM
same,GI50,OVCAR-5 ovarian,< 5 nM
same,TGI,OVCAR-5 ovarian,4740 nM
same,GI50,UACC-257 melanoma,< 5 nM
same,TGI,UACC-257 melanoma,8900 nM
same,GI50,LOX IMVI melanoma,< 5 nM
same,TGI,LOX IMVI melanoma,584 nM
same,GI50,SK-MEL-28 melanoma,< 5 nM
same,TGI,SK-MEL-28 melanoma,75.7 nM
same,GI50,COLO 205 colon,< 5 nM
same,TGI,COLO 205 colon,< 5 nM
same,GI50,UACC-62 melanoma,< 5 nM
same,TGI,UACC-62 melanoma,243 nM
same,GI50,HOP-92 NSCLC,< 5 nM
same,TGI,HOP-92 NSCLC,< 5 nM
same,GI50,MDA-MB-231 breast,< 5 nM
same,TGI,MDA-MB-231 breast,4640 nM
same,GI50,HS 578T breast,< 5 nM
same,TGI,HS 578T breast,2450 nM
same,GI50,HL-60(TB) leukemia,< 5 nM
same,TGI,HL-60(TB) leukemia,< 5 nM
same,GI50,IGROV1 ovarian,92.6 nM
same,TGI,IGROV1 ovarian,7880 nM
